Tests used:
GLUT4 = target: T1, GLUT4 (Homo sapiens, UniProt P14672); experiment: 2-DOG transport in HEK293 cells over-expressing GLUT4; type: cell-based; conditions: for IC50: pre-treated 5 minutes, 2-DOG uptake 4 min, cells lacking GLUT1, read-out: IC50 (inhibition of 2-DOG transport in HEK cells over-expressing GLUT isoforms) GLUT4
T1 construct: expressed in transfected cells; host or cells: HEK293 stably expressing GLUT1 shRNA
T1 sequence (P14672 1-509): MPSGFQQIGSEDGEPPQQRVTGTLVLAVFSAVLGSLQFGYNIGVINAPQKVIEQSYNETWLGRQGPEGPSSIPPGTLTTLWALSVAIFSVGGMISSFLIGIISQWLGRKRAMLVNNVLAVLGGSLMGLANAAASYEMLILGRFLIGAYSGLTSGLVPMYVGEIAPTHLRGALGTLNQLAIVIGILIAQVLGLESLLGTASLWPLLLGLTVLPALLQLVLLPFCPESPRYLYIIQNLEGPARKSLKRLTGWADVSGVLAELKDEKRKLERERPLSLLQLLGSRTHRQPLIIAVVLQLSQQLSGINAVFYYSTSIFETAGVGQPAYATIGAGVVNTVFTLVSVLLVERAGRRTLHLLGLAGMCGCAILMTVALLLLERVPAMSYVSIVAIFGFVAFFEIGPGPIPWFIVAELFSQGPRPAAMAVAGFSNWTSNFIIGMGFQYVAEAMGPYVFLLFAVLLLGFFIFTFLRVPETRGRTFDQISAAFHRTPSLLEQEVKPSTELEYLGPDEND
Experimental: (§1) Tissue culture plates were pretreated with 25 μg/ml polyethyleneimine (Fluka, catalogue number P3143) in 150 mM NaCl for 20min to let cells adhere. JNN3 cells were subsequently plated and grown to 40-60% confluency in complete RPMI 1640 medium. HEK293 GLUT overexpressing cells were plated at 400,000 cells/ml overnight. Cells were then washed with glucose-free HEPES buffer twice and starved for 30 min. The uptake of 2-[^3H] deoxy-D-glucose (2-DOG) (50 μM) was measured in glucose-free HEPES buffer for 4-6 min at 37° C. Compound 20 (20 μM) was added 5-6 min prior to the addition of glucose depending on the specific assay. For the HEK293 GLUT overexpressing cells, non-specific uptake was measured in non-transfected HEK293 cells containing the shRNA GLUT1 knockdown and was subtracted from the experimental values. Data are plotted as percent uptake relative to unexposed HEK293 cultures. Data were normalized to fit by nonlinear regression analysis using GraphPad Prism software.
(§2) Compound 20 was further screened for GLUT4 selectivity by evaluating inhibition of glucose transport in HEK 293 cells exogenously over-expressing human GLUTs-1, -2, -3, -4, or -8 that also stably express GLUT1 shRNA (except the GLUT1 overexpressing cell line) to knock down endogenous GLUT1.
(§3) Glucose transport in HEK293 cells over-expressing GLUT1 or over-expressing GLUT4 or GLUT8 in cells lacking GLUT1 were used to evaluate inhibition of glucose transport. Cells were pre-treated with compound for 5 minutes followed by evaluation of […] uptake for 4 min at […]. Non-specific uptake was measured in nontransfected HEK293 cells containing the shRNA GLUT1 knockdown and was subtracted from the experimental values.

GLUT8 = target: T2, GLUT8 (Homo sapiens, UniProt Q9NY64); experiment: 2-DOG transport in HEK293 cells over-expressing GLUT8; type: cell-based; conditions: pre-treated 5 minutes, 2-DOG uptake 4 min; cells lacking GLUT1; read-out: IC50 (inhibition of 2-DOG transport in HEK cells over-expressing GLUT isoforms) GLUT8
T2 construct: expressed in transfected cells; host or cells: HEK293 stably expressing GLUT1 shRNA
T2 sequence (Q9NY64 1-477): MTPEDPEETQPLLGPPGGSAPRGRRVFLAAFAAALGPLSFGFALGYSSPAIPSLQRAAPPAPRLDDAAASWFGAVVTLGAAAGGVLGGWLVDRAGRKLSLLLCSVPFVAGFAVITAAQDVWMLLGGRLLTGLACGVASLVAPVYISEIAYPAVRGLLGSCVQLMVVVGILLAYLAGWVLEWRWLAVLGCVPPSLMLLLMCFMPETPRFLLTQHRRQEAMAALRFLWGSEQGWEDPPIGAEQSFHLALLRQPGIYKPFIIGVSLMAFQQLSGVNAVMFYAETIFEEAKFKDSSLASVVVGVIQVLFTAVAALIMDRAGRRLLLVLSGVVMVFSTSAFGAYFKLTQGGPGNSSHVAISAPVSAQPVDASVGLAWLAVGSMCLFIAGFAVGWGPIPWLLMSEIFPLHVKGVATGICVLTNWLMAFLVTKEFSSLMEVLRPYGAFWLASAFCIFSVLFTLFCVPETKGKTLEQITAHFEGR
Experimental: as §1, §2, §3

H1299 cell = H1299 cell invasion; type: cell-based, human; conditions: FIG. 9
KMS11-GFP cells = experiment: Proliferation of KMS11-GFP myeloma cells (Cell Titre Glo); type: cell-based
Experimental: (§4) IC50 studies were performed using the CellTiter-Glo assay (Promega, Madison, Wis.). 20,000 cells in 100 ul complete RPMI 1640 medium were plated per well in 96-well plates, with a concentration range of individual compounds. After 72 h incubation, 100 uL Glo reagent were added to each well and luminescence was measured using a Biotek Synergy 4 multimode plate reader. Cell number was assessed by trypan blue standing and an automatic cell counter (Biorad). For cell viability assays 0.125×10^6 cells/mL were treated with the indicated concentration of drug, washed with 1×PBS and evaluated for viability by AnnexinV/DAPI staining and flow cytometry. Data analysis was per-formed with the FCS express version 3 (De Novo software, Los Angeles).
(§5) Compound were selected as a lead based on its low IC50, selectivity for inhibition of glucose transport through GLUT4, and inhibition of the KMS11-GFP cell line proliferation in contrast to the GLUT1 expressing isogenic line. Compounds were assessed in a high-throughput proliferation-based assay using an isogenic MM (KMS11) cell line pair overexpressing GLUT1 or GFP (as a control) (model of screen is depicted in FIG. 2A). […] Isogenic KMS11-GFP/GLUT1 overexpressing myeloma cell lines were treated with a dose range of the indicated test compound for 72 hours followed by evaluation of viable cell number by Cell Titre Glo assay

KMS11-GLUT1 cells = experiment: Proliferation of KMS11-GLUT1 myeloma cells (Cell Titre Glo); type: cell-based; conditions: inhibition of proliferation, 72 hours
Experimental: as §4, §5

KMS11 cells = experiment: Cell viability by AnnexinV/DAPI staining and flow cytometry in KMS11 cells; type: cell-based; conditions: compared with compounds 8, 9, 17
Experimental: as §4
They were selected and their effect on cell viability evaluated by AnnexinV/DAPI staining and flow cytometric analysis.

JJN3 cells [1] = experiment: 2-[3H]deoxyglucose uptake in JJN3 cells; type: cell-based; conditions: 20 μM, 6 min pre-treatment, 6 min uptake at 37 degrees C; compared with GLUT4 shRNA
Experimental: as §1
(§6) Impact of compound 20 was evaluated on glucose uptake in MM cells.

[2] = tested on: JJN3 cells expressing GLUT4 shRNA; experiment: Viability/proliferation of JJN3 cells with GLUT4 shRNA (trypan blue, cell counter); type: cell-based; conditions: 15 μM, 72 hours
Experimental: as §4, §6

MCL-1 = experiment: Immunoblot of MCL-1 expression in MM cells; type: cell-based; conditions: L363 cells vs JJN3, 15 μM for 18 hours
L363 cells = experiment: Cell death with ABT-199 co-treatment in L363 cells (AnnexinV/DAPI); type: cell-based; conditions: 10 μM with 0.025 μM-3 μM ABT-199, 72 hours
Experimental: Compound 20 decreasing MCL-1 expression and sensitizing MM cell lines to Venetoclax (ABT-199),
(§7) Cell death was evaluated by AnnexinV/DAPI flow cytometric staining.
as §4, with “Data analysis was per-formed with the FCS express version 3 (De Novo software, Los Angeles).” left out
(§8) KD of GLUT4 and glucose deprivation lead to variable suppression of the pro-survival anti-apoptotic protein MCL-1. […] Compound 20 was evaluated for sensitizing MM patient samples to ABT-199. CD38+/CD45− gated myeloma cells from myeloma patient bone marrow aspirates were evaluated for viability after 48 hrs of treatment. […] To rule out the cytotoxic effect of co-treatment of compound 20 with either ABT-199 or dexamethasone on other non-myeloma cell populations, cell viability of CD38−/CD45− and CD38−/CD45+ cells were analyzed within the MM patient sample bone marrow aspirate (FIG. 6G). […]

JJN3 cells [3] = experiment: Cell death with ABT-199 co-treatment in JJN3 cells (AnnexinV/DAPI); type: cell-based; conditions: co-treatment with ABT-199
Experimental: as §7, §4, §8

[4] = tested on: CD38+/CD45- gated myeloma cells from myeloma patient bone marrow aspirates; experiment: Cell death of myeloma cells from MM patient bone marrow aspirates; type: cell-based, human
Experimental: CD38-phyocerythrin and CD45-allophycocyanin-Cy7 positive myeloma cells were evaluated for cell death.
(§9) KD of GLUT4 and glucose deprivation lead to variable suppression of the pro-survival anti-apoptotic protein MCL-1. […] Cells resistant to glucose deprivation-induced cell death increase binding of pro-apoptotic BIM to BCL-2, facilitating sensitization to the BH3 mimetic venetoclax (ABT-199). 22 Treatment of glucose-deprived resistant cells with ABT-199 releases the additional BIM bound to BCL-2, inducing apoptosis. […] Compound 20 was evaluated for sensitizing MM patient samples to ABT-199. CD38+/CD45− gated myeloma cells from myeloma patient bone marrow aspirates were evaluated for viability after 48 hrs of treatment. […] The ability of compound 20 to sensitize MM cells and induce cell death to the commonly used steroid dexamethasone (Dex) was tested. […] To rule out the cytotoxic effect of co-treatment of compound 20 with either ABT-199 or dexamethasone on other non-myeloma cell populations, cell viability of CD38−/CD45− and CD38−/CD45+ cells were analyzed within the MM patient sample bone marrow aspirate (FIG. 6G). […] Lastly, compound 20 was also found to sensitize MM.15 cells to a dose range of the alkylating agent melphalan (Mel) that was assessed in a 72 hr treatment period (FIG. 6H).

MM.1S cells = experiment: Cell death with dexamethasone or melphalan co-treatment in MM.1S cells (AnnexinV/DAPI); type: cell-based; conditions: 72 hr
Experimental: as §7, §4, §8

[5] = tested on: CD38-/CD45- and CD38-/CD45+ cells; experiment: Viability of normal non-myeloma cell populations in MM patient bone marrow aspirate; type: cell-based; conditions: in combination with either ABT-199 or Dex
Description: Data from patient #6 is representative of patient samples evaluated.
as §9, with “tested. Compound 20 treated MM.1S cells were exposed to a dose range of Dex (0.00195 μM to 1 μM) for 72 hr (FIG. 6E).” for “tested.”

[6] = tested on: follower lung cancer cell; experiment: Follower lung cancer cell invasion; type: cell-based; conditions: FIG. 7
FAK = FAK activation, scratch assay; type: cell-based; conditions: FIG. 8

| IC50 (GLUT8) | Compound | IC50 (GLUT4) | H1299 cell invasion (H1299 cell) | EC50 (KMS11-GFP cells; inhibition of proliferation, 72 hours, Cell Titre Glo) | impact on proliferation in KMS11-GFP cells compared with KMS11-GLUT1 cells (KMS11-GFP cells; isogenic cell line pair) | EC50 (KMS11-GLUT1 cells) | cell death in KMS11 cells (KMS11 cells) | selectivity of glucose transport inhibition among human GLUTs-1, -2, -3, -4, -8 (GLUT4; HEK 293 cells over-expressing human GLUTs, 4 minute uptake of 2-DOG) | 2-DOG uptake in JJN3 cells (JJN3 cells [1]) | viable cell counts in GLUT4 knockdown cells [2] | MCL-1 expression (MCL-1) | sensitivity to ABT-199, L363 cell line (L363 cells) | sensitivity to ABT-199, JJN3 cell line (JJN3 cells [3]) | sensitization of MM patient samples to combination with dexamethasone ([4]; 0.5 μM dexamethasone and 10 μM compound 20, 48 hr) | relapse/refractory patient samples with greater apoptosis on co-treatment with ABT-199 than either drug alone ([4]; 10 μM with 0.5 μM ABT-199, 48 hrs) | sensitization to melphalan (Mel) (MM.1S cells; 10 μM with 0.01 μM-4 μM melphalan) | sensitization to dexamethasone (Dex), cell death in MM.1S (MM.1S cells; 10 μM with Dex 0.00195 μM to 1 μM) | viability of normal non-myeloma cell populations [5] | follower lung cancer cell invasion [6] | FAK activation (FAK) |
| --- | --- | --- | --- | --- | --- | --- | --- | --- | --- | --- | --- | --- | --- | --- | --- | --- | --- | --- | --- | --- |
| 6 µM | COc1ccc(C(=O)N(Cc2ccncc2)Cc2cccc(OCCc3ccc(F)cc3)c2)cc1 [Compound 26] | 3.5 µM | inhibits H1299 cell invasion |  |  |  |  |  |  |  |  |  |  |  |  |  |  |  |  |  |
|  | COc1ccc(CC(=O)N(Cc2ccncc2)Cc2cccc(OCCc3ccc(F)cc3)c2)cc1 [Compound 20, N-(3-(4-fluorophenethoxy)benzyl)-2-(4-methoxyphenyl)-N-(pyridin-4-ylmethyl)acetamide] | 18.2 µM |  | 13.4 µM | greater impact on proliferation in KMS11-GFP cells | 21.8 µM | greater cell death | selective for GLUT4 over GLUTs 1, 2, 3 and 8 | effectively reduced | no further reduction | significantly reduced | increased sensitivity to ABT-199 | increased sensitivity to ABT-199 | sensitized | 4 of 7 | sensitize | significant sensitization and cell death | did not impact the viability | inhibits follower lung cancer cell invasion | inhibits FAK activation |

From patent US20190321345A1, “GLUT4 Selective Inhibitors for Cancer Therapy” (Emory University, priority 2016, published 2019)
